Numbered stars: 1 amine (or outer) side, 2 acyl side, 3 side chain; on linkers, the order of the positions; unused ones are H or OH. Bridge positions count the residues as written; N and C are the ends. Square brackets hold non-standard residues; d marks the D form. Peptide text beside a SMILES is read from it. * marks the point of attachment. Trp(βS-Me,7-OMe) = COc1cccc2c([C@H](C)[C@H](N)C(=O)O)c[nH]c12; Phe(4-SO2NH2) = N[C@@H](Cc1ccc(S(N)(=O)=O)cc1)C(=O)O; Phe(2-F,4-COOH) = N[C@@H](Cc1ccc(C(=O)O)cc1F)C(=O)O; dPro(trans-4-NMe2) = CN(C)[C@@H]1CN[C@@H](C(=O)O)C1; Trp(7-CN) = N#Cc1cccc2c(C[C@H](N)C(=O)O)c[nH]c12; Trp(7-Cl) = N[C@@H](Cc1c[nH]c2c(Cl)cccc12)C(=O)O; Phe(3-CONH2) = NC(=O)c1cccc(C[C@H](N)C(=O)O)c1; Phe(4-CONH2) = NC(=O)c1ccc(C[C@H](N)C(=O)O)cc1; Phe(4-COOH) = N[C@@H](Cc1ccc(C(=O)O)cc1)C(=O)O; Trp(7-aza) = N[C@@H](Cc1c[nH]c2ncccc12)C(=O)O; X3 = C[C@H](c1ccncc1)[C@H](N[*:1])C(=O)[*:2]; dPro(4S-NH2) = N[C@@H]1CN[C@@H](C(=O)O)C1; Pip(5R-OH) = O=C(O)[C@@H]1CC[C@@H](O)CN1; X1 = O=C([C@@H]1CC[C@H](N[*:1])C1)[*:2]; Gly(Nα-CH2CH2CONH2) = NC(=O)CCNCC(=O)O; Pip(4-aza) = O=C(O)[C@@H]1CNCCN1; 4Pal = N[C@@H](Cc1ccncc1)C(=O)O; NMeE = CN[C@@H](CCC(=O)O)C(=O)O; dHyp = O=C(O)[C@H]1C[C@H](O)CN1; aThr = C[C@H](O)[C@H](N)C(=O)O; Ahp(2) = CCCCC[C@H](N)C(=O)O; αMeS = C[C@](N)(CO)C(=O)O; Carboxymethyl = O=C(O)C*; Nle = CCCC[C@H](N)C(=O)O; Ethyl(2-NH2) = NCC*; Sar = CNCC(=O)O
What follows are compounds tested against T1, TNFα-induced NF-κB signal transduction pathway (TNFR1 signaling) in THP-1 cells (Homo sapiens, UniProt P19438) (assay: THP-1 Lucia NF-κB reporter cell assay, inhibition of TNFα-induced NF-κB signaling). Conditions: THP-1 NF-κB Lucia reporter cells, 10 ng/mL TNFα, 16-18 h, secreted luciferase; read-out: THP-1 IC50.
T1 sequence (P19438 30-455): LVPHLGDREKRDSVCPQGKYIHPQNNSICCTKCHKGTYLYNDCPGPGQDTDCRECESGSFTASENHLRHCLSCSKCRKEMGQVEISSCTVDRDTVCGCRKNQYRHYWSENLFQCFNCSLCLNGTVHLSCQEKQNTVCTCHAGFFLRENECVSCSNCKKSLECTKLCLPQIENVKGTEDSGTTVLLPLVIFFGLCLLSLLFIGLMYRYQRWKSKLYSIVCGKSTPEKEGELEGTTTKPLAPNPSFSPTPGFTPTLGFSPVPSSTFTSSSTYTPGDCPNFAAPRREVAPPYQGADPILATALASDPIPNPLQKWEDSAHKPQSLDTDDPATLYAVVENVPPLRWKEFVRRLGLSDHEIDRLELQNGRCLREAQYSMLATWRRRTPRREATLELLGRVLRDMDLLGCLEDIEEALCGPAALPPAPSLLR
Type: cell-based
Procedure, shortened: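 THP-1 Lucia NF-κB cells, 20k/well, no selection antibiotics; peptide pre-inc 1 h 37 °C; + recombinant human TNFα 10 ng/mL final; o.n.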

Question: How did the IC50 turn out when `CCCC[C@@H]1NC(=O)[C@@H]2CC[C@@H](C2)NC(=O)[C@H]([C@@H](C)c2c[nH]c3c(OC)cccc23)NC(=O)CN(C)C(=O)[C@H](Cc2ccc(C(N)=O)cc2)NC(=O)[C@H](Cc2ccc(C(N)=O)cc2)NC(=O)[C@](C)(CO)NC(=O)[C@H](Cc2c[nH]c3c(C#N)cccc23)NC(=O)[C@H](Cc2ccc(C(=O)O)cc2)NC(=O)[C@H]([C@H](C)O)NC(=O)[C@H]2C[C@H](O)CN2C(=O)[C@H](Cc2c[nH]c3ncccc23)NC(=O)[C@@H]2CC[C@@H](O)CN2C(=O)[C@H](Cc2ccncc2)NC1=O` [SEQ ID NO. 122] (cyclo([4Pal][Pip(5R-OH)][Trp(7-aza)][dHyp][aThr][Phe(4-COOH)][Trp(7-CN)][αMeS][Phe(4-CONH2)][Phe(4-CONH2)][Sar][Trp(βS-Me,7-OMe)][X1][Nle])) was run?
Answer: Its IC50 is 0.9 nM.

Question: For `CCCCC[C@@H]1NC(=O)[C@@H]2CC[C@@H](C2)NC(=O)[C@H]([C@@H](C)c2c[nH]c3c(OC)cccc23)NC(=O)CN(C)C(=O)[C@H](Cc2cccc(C(N)=O)c2)NC(=O)[C@H](Cc2ccc(C(N)=O)cc2)NC(=O)[C@](C)(CO)NC(=O)[C@H](Cc2c[nH]c3c(C#N)cccc23)NC(=O)[C@H](Cc2ccc(C(=O)O)cc2)NC(=O)[C@H](CC(N)=O)NC(=O)[C@H]2C[C@H](N(C)C)CN2C(=O)[C@H](Cc2c[nH]c3ccccc23)NC(=O)[C@@H]2CC[C@@H](O)CN2C(=O)[C@H](Cc2ccncc2)NC1=O` [SEQ ID NO. 128] (cyclo([4Pal][Pip(5R-OH)]W[dPro(trans-4-NMe2)]N[Phe(4-COOH)][Trp(7-CN)][αMeS][Phe(4-CONH2)][Phe(3-CONH2)][Sar][Trp(βS-Me,7-OMe)][X1][Ahp(2)])), which IC50 is on record?
Answer: The IC50 was 0.8 nM.

Question: How did the IC50 turn out when `CCCC[C@@H]1NC(=O)[C@@H]2CC[C@@H](C2)NC(=O)[C@H]([C@@H](C)c2c[nH]c3c(OC)cccc23)NC(=O)CN(C)C(=O)[C@H](Cc2ccc(C(=O)O)cc2)NC(=O)[C@H](Cc2ccc(C(N)=O)cc2)NC(=O)[C@](C)(CO)NC(=O)[C@H](Cc2c[nH]c3c(C#N)cccc23)NC(=O)[C@H](Cc2ccc(C(=O)O)cc2)NC(=O)[C@H](CC(N)=O)NC(=O)CN(CCC(N)=O)C(=O)[C@H](Cc2c[nH]c3ccccc23)NC(=O)[C@@H]2CC[C@@H](O)CN2C(=O)[C@H](Cc2ccncc2)NC1=O` [SEQ ID NO. 130] (cyclo([4Pal][Pip(5R-OH)]W[Gly(Nα-CH2CH2CONH2)]N[Phe(4-COOH)][Trp(7-CN)][αMeS][Phe(4-CONH2)][Phe(4-COOH)][Sar][Trp(βS-Me,7-OMe)][X1][Nle])) was run?
Answer: Its IC50 is 0.7 nM.

Question: With `CCCC[C@@H]1NC(=O)[C@@H]2CC[C@@H](C2)NC(=O)[C@H]([C@@H](C)c2c[nH]c3c(OC)cccc23)NC(=O)CN(C)C(=O)[C@H](Cc2ccc(C(=O)O)cc2F)NC(=O)[C@H](Cc2ccc(S(N)(=O)=O)cc2)NC(=O)[C@](C)(CO)NC(=O)[C@H](Cc2c[nH]c3c(C#N)cccc23)NC(=O)[C@H](Cc2ccc(C(=O)O)cc2F)NC(=O)[C@H](CC(N)=O)NC(=O)[C@H]2C[C@H](OCC(=O)O)CN2C(=O)[C@H](Cc2c[nH]c3ncccc23)NC(=O)[C@@H]2CC[C@@H](O)CN2C(=O)[C@H](Cc2ccncc2)NC1=O` [SEQ ID NO. 134] (cyclo([4Pal][Pip(5R-OH)][Trp(7-aza)][dHyp](Carboxymethyl)N[Phe(2-F,4-COOH)][Trp(7-CN)][αMeS][Phe(4-SO2NH2)][Phe(2-F,4-COOH)][Sar][Trp(βS-Me,7-OMe)][X1][Nle])) as the compound, how does the IC50 read?
Answer: The IC50 was 0.4 nM.

Question: How did the IC50 turn out when `CCCCC[C@@H]1NC(=O)[C@@H]2CC[C@@H](C2)NC(=O)[C@H]([C@@H](C)c2c[nH]c3c(OC)cccc23)NC(=O)CN(C)C(=O)[C@H](Cc2ccc(C(N)=O)cc2)NC(=O)[C@H](Cc2ccc(C(N)=O)cc2)NC(=O)[C@](C)(CO)NC(=O)[C@H](Cc2c[nH]c3c(C#N)cccc23)NC(=O)[C@H](Cc2ccc(C(=O)O)cc2)NC(=O)[C@H](CC(N)=O)NC(=O)[C@H]2C[C@H](OCC(=O)O)CN2C(=O)[C@H](Cc2c[nH]c3ccccc23)NC(=O)[C@@H]2CNCCN2C(=O)[C@H](Cc2ccncc2)NC1=O` [SEQ ID NO. 140] (cyclo([4Pal][Pip(4-aza)]W[dHyp](Carboxymethyl)N[Phe(4-COOH)][Trp(7-CN)][αMeS][Phe(4-CONH2)][Phe(4-CONH2)][Sar][Trp(βS-Me,7-OMe)][X1][Ahp(2)])) was run?
Answer: The IC50 was 0.5 nM.

Question: With `CCCC[C@@H]1NC(=O)[C@@H]2CC[C@@H](C2)NC(=O)[C@H]([C@@H](C)c2c[nH]c3c(OC)cccc23)NC(=O)CN(C)C(=O)[C@H](Cc2ccc(O)cc2)NC(=O)[C@H](Cc2ccc(C(=O)O)cc2)NC(=O)[C@](C)(CO)NC(=O)[C@H](Cc2c[nH]c3c(Cl)cccc23)NC(=O)[C@H](Cc2ccncc2)NC(=O)[C@H](CC(N)=O)NC(=O)CN(C)C(=O)[C@H](Cc2c[nH]c3ccccc23)NC(=O)[C@@H]2CNCCN2C(=O)[C@H](Cc2ccncc2)NC1=O` [SEQ ID NO. 141] (cyclo([4Pal][Trp(7-Cl)][αMeS][Phe(4-COOH)]Y[Sar][Trp(βS-Me,7-OMe)][X1][Nle][4Pal][Pip(4-aza)]W[Sar]N)) as the compound, how does the IC50 read?
Answer: Its IC50 is 1.2 nM.

Question: With `CCCC[C@@H]1NC(=O)CSC[C@@H](C(N)=O)NC(=O)[C@H]([C@@H](C)c2c[nH]c3c(OC)cccc23)NC(=O)CN(C)C(=O)[C@H](Cc2ccc(O)cc2)NC(=O)[C@H](Cc2ccc(C(=O)O)cc2)NC(=O)[C@](C)(CO)NC(=O)[C@H](Cc2c[nH]c3c(Cl)cccc23)NC(=O)[C@H](Cc2ccncc2)NC(=O)[C@H](CC(N)=O)NC(=O)[C@H](CCC(=O)O)N(C)C(=O)[C@H](Cc2c[nH]c3ncccc23)NC(=O)[C@H](CO)NC(=O)[C@H]([C@H](C)c2ccncc2)NC1=O` [SEQ ID NO. 143] ({CH2CO}-[Nle][X3]S[Trp(7-aza)][NMeE]N[4Pal][Trp(7-Cl)][αMeS][Phe(4-COOH)]Y[Sar][Trp(βS-Me,7-OMe)]C-NH2; thioether N-14) as the compound, how does the IC50 read?
Answer: Its IC50 is 2.2 nM.

Question: Which IC50 does the source give for `CCCC[C@@H]1NC(=O)[C@@H]2CC[C@@H](C2)NC(=O)[C@H]([C@@H](C)c2c[nH]c3c(OC)cccc23)NC(=O)CN(C)C(=O)[C@H](Cc2ccc(O)cc2)NC(=O)[C@H](Cc2ccc(C(N)=O)cc2)NC(=O)[C@](C)(CO)NC(=O)[C@H](Cc2c[nH]c3c(Cl)cccc23)NC(=O)[C@H](Cc2ccncc2)NC(=O)[C@H](CC(N)=O)NC(=O)[C@H]2C[C@H](N)CN2C(=O)[C@H](Cc2c[nH]c3ccccc23)NC(=O)[C@@H]2CC[C@@H](O)CN2C(=O)[C@H](Cc2ccncc2)NC1=O` [SEQ ID NO. 144] (cyclo([4Pal][Trp(7-Cl)][αMeS][Phe(4-CONH2)]Y[Sar][Trp(βS-Me,7-OMe)][X1][Nle][4Pal][Pip(5R-OH)]W[dPro(4S-NH2)]N)) here?
Answer: Its IC50 is 0.6 nM.

Question: For `COc1cccc2c([C@H](C)[C@@H]3NC(=O)CN(C)C(=O)[C@H](Cc4ccc(C(=O)O)cc4)NC(=O)[C@H](Cc4ccc(C(N)=O)cc4)NC(=O)[C@](C)(CO)NC(=O)[C@H](Cc4c[nH]c5c(Cl)cccc45)NC(=O)[C@H](Cc4ccc(C(=O)O)cc4)NC(=O)[C@H](CC(N)=O)NC(=O)[C@H]4C[C@H](O)CN4C(=O)[C@H](Cc4c[nH]c5ncccc45)NC(=O)[C@@H]4CC[C@@H](O)CN4C(=O)[C@H](Cc4ccncc4)NC(=O)[C@H](COCCN)NC(=O)[C@@H]4CC[C@@H](C4)NC3=O)c[nH]c12` [SEQ ID NO. 148] (cyclo([4Pal][Pip(5R-OH)][Trp(7-aza)][dHyp]N[Phe(4-COOH)][Trp(7-Cl)][αMeS][Phe(4-CONH2)][Phe(4-COOH)][Sar][Trp(βS-Me,7-OMe)][X1]S(Ethyl(2-NH2)))), which IC50 is on record?
Answer: Its IC50 is 2.8 nM.

— patent US20240287138A1, “CYCLIC PEPTIDES FOR INHIBITING TNF RECEPTOR 1 ACTIVITY” (Merck Sharp & Dohme LLC, priority 2023, published 2024)
